Results taken from patent publication US20100075360A1, “UV BASED CELL VIABILITY AS AN INDICATOR OF SUN PROTECTION FACTOR AND METHODS OF MEASUREMENT THEREOF” (priority 2008, published 2010).
Read-outs that look alike come from different tables or passages of the source.

How the values were obtained:
[1] = system: Swiss 3T3 fibroblast cells
Method: Swiss 3T3 Mouse fibroblast cells and HaCAT Human keratinocytes were obtained from ATCC and cultured in DMEM medium supplemented with 10% FBS. The confluent cultures are harvested by trypsinization and expanded during two more passages before they were used for the experiments. Medium and other culture components were renewed after 48-72 h. All cell cultures were maintained in a humidified atmosphere at 37° C. in 95% air and 5% CO2.
UV lamp of 14.7 W, 0.3 A, 55V with an intensity of 33.3 μW/cm^2 from Sankyo Denki Co., Ltd.
The neutral red (NR) uptake assay: The NR cytotoxicity assay procedure is a cell survival/viability chemosensitivity assay, based on the ability of viable cells to incorporate and bind neutral red, a supravital dye. NR is a weak cationic dye that readily penetrates cell membranes by non-ionic diffusion, accumulating intracellularly in lysosomes, where it binds with anionic sites in the lysosomal matrix. Alterations of the cell surface or the sensitive lysosomal membrane lead to lysosomal fragility and other changes that gradually become irreversible. Such changes brought about by UV exposure result in a decreased uptake and binding of NR. It is thus possible to distinguish between viable, damaged, or dead cells, which are the basis of this assay. The dye taken up by the cells is subsequently extracted and measured. The dye was dissolved in distilled water at a concentration of 0.5 mg/100 μl. 80 μl of this stock solution was dissolved in 15 ml of pre warmed DMEM medium. The developer solution consists of 25 ml of water, 24.5 ml of ethanol and 0.5 ml of glacial acetic acid. The NRU dye and the developer solutions are to be made fresh before use. After UV exposure and consequent incubation for 72 hrs, the culture medium is replaced with NRU dye and incubated for 3 hrs at 37° C., after which the dye is washed off thrice with PBS. The dye is dissolved in 100 μl of developer solution and incubated at RT for 20 min. The OD was determined at 492 nm using a microplate reader.
Swiss 3T3 fibroblasts were plated in a 96 well micropipette at a seeding density of 3000 cells per well. […] After exposure, the cells were incubated in a CO2 incubator for 48 hrs and developed by the NRU staining technique to analyze the cell viability. The SPF of 1.25% OMC was determined with respect to the untreated cells.

[2] = system: Swiss 3T3 fibroblast cells; assay: Percentage of UV protection in Swiss 3T3 fibroblast cells (NRU staining); assay type: cell-based, mouse; conditions: UV B 5 minutes
Method: The unexposed region of the plate was covered by aluminum foil. […] The percentage of UV protection was calculated with respect to unexposed cells.

CCCCC(CC)COC(=O)C=Cc1ccc(OC)cc1 (stereo not shown) [OMC, Octyl methoxy cinnamate]
minimal cytotoxic dose (MCDp) for protected cells ([1]; 1.25% OMC): 0.144 J/cm^2 | % UV toxicity ([1]; 1.25% OMC, UV dosage 0.0072 J/cm^2): 0% | % UV toxicity ([1]; 1.25% OMC, UV dosage 0.0216 J/cm^2): 0% | % UV toxicity ([1]; 1.25% OMC, UV dosage 0.036 J/cm^2): 0% | % UV toxicity ([1]; 1.25% OMC, UV dosage 0.0504 J/cm^2): 0% | % UV toxicity ([1]; 1.25% OMC, UV dosage 0.072 J/cm^2): 0% | % UV toxicity ([1]; 1.25% OMC, UV dosage 0.216 J/cm^2): 39.62% | minimal cytotoxic dose (MCDp) for protected cells ([1]; 7% OMC): 0.54 J/cm^2 | SPF (MCDp/MCDu) ([1]; 7% OMC, MCDu 0.0216 J/cm^2): 25 | % UV toxicity ([1]; 7% OMC, UV dosage 0.0072 J/cm^2): 0% | % UV toxicity ([1]; 7% OMC, UV dosage 0.0216 J/cm^2): 0% | % UV toxicity ([1]; 7% OMC, UV dosage 0.036 J/cm^2): 0% | % UV toxicity ([1]; 7% OMC, UV dosage 0.0504 J/cm^2): 0% | % UV toxicity ([1]; 7% OMC, UV dosage 0.072 J/cm^2): 0% | % UV toxicity ([1]; 7% OMC, UV dosage 0.18 J/cm^2): 0% | % UV toxicity ([1]; 7% OMC, UV dosage 0.432 J/cm^2): 0% | % UV toxicity ([1]; 7% OMC, UV dosage 0.54 J/cm^2): 7% | % UV toxicity ([1]; 7% OMC, UV dosage 0.648 J/cm^2): 9% | % UV protection ([2]; 0.15% OMC in culture medium, vs unexposed cells): 56% | % UV protection ([2]; 0.31% OMC in culture medium): 71% | % UV protection ([2]; 0.62% OMC in culture medium): 77% | % UV protection ([2]; 1.25% OMC in culture medium): 90%
